Data on 12 compounds can be found in patent US20120270770A1, “Anti-angiogenic peptides and their uses” (priority 2010, published 2012).

“Also recorded” adds a separate entry of the source. Where a SMILES comes first, the peptide text is derived from it.

Data set [1] deals with HMEC-1 monolayer. The data set can be described thus: Endothelial cell migration assay (scraped HMEC-1 monolayer). In kind it is cell-based. The settings on record: NT = 1.00. The method, then:
The results in Table 6 are gathered from an in vitro experiment and show the ability of JC 15 10N to inhibit the migration of endothelial cells (the “minus” values). This migration is a requisite step in the formation of new blood vessels. […] The shading indicates the presence of VEGF ([…] endothelial growth factor). This growth factor causes endothelial cell migration and consequent assembly of blood vessels.
Cell migration was performed as previously described. In brief, a HMEC-1 monolayer was scraped making a 1-mm wide denuded area then stimulated with VEGF and 10N and the area unoccupied by the migrating cells was determined using MetaMorph and expressed as a percentage of control.

Data set [2] deals with Stage IV pancreatic cancer. Particulars: cited from earlier work.
Data set [3] concerns angiogenesis in Matrigel deposits imbibed with fibroblast growth factor 1 (FGF1). Kind of data set: Matrigel deposit angiogenesis assay (FGF1-loaded Matrigel implanted in mice, histology score). Details: key to top level score reached in Matrigel deposits: ++++: This system ranks each sample using a 0 to 4 plus (+) scale; B in FIG. 13 would yield a score of +++; no + sign would yield a value of 0, as in A in FIG. 13. The format is in vivo. Particulars: for angiogenic activity score, Sample 1 / angiogenic activity score, Sample 2 / angiogenic activity score, Sample 3 / angiogenic activity score, Sample 4 / angiogenic activity score, Sample 5 / angiogenic activity score, Sample 6 / angiogenic activity score, Sample 7 / angiogenic activity score, Sample 8 / top level score reached in Matrigel deposits: 0 to 4 plus scale; for angiogenic activity score, Sample 1 / angiogenic activity score, Sample 2 / angiogenic activity score, Sample 3 / angiogenic activity score, Sample 4 / angiogenic activity score, Sample 5 / angiogenic activity score, Sample 6 / angiogenic activity score, Sample 7 / angiogenic activity score, Sample 8 / angiogenic / anti-angiogenic activity in Matrigel deposit (in words): 20 μg peptide IP daily; for angiogenic activity score, Sample 1 / angiogenic activity score, Sample 2 / angiogenic activity score, Sample 3 / angiogenic activity score, Sample 4 / angiogenic activity score, Sample 5 / angiogenic activity score, Sample 6 / angiogenic activity score, Sample 7 / angiogenic activity score, Sample 8: Day 14 histology; for % Diff.: difference of mean score from control (2.50); for angiogenic activity score, Mean: mean of samples, control mean 2.50; for angiogenic / anti-angiogenic activity in Matrigel deposit (in words): histology, Day 14. An excerpt: Matrigel deposits were surgically implanted on both sides of 4 mice per treatment yielding a possible 8 samples per treatment. Matrigel is a polymeric substance that appears to be relatively inert in animals and it can serve as a matrix that allows experimentation in vivo on many different difficult-to-study-processes. Prior to implantation, the Matrigel was allowed to imbibe fibroblast growth factor 1 (FGF1). This protein is a powerful inducer of angiogenesis and its presence guarantees that sufficient activity will be observed within the allotted time period of the experiment. Therefore, any inhibition of angiogenesis is likely to be a real phenomenon as the experiment has been set to heavily favor the angiogenic process. Angiogenesis occurs by day 14 and beginning Day 1 (Day 0=day of implantation), mice were injected IP daily with 20 μg of peptide in 100 μl of normal saline. The animals were sacrificed on Day 14, and each Matrigel deposit divided longitudinally and fixed in 10% buffered formalin. One of the halves of each Matrigel deposit was then sectioned. Read-out for this experiment was via histology, with semi-quantitative/qualitative counting of migration of cells and their subsequent assembly of lumenal structures within the Matrigel. This method allows us to observe the full physiologic spectrum of effects, and was useful in delineating trends. […] In FIG. 13, A represents what a section of a Matrigel gel deposit looks like under the microscope soon after surgical implantation. The sample in B is derived from the control at the conclusion of the experiment. Intense activity is present with numerous cells attaching to the surface of the Matrigel. Cells begin to penetrate the deposit and organize into discrete structures that coalesce to form the beginning of tubes twisting and branching in many directions. These venules eventually connect with the system carrying blood and it is possible to see red cells and lymphocytes within them. This process is called “arborization”, derived from the fact that the angiogenic process most closely resembles the growth of roots and branches of trees. All but two of the peptide treatments looked, more or less, like B (all the peptides of Table 1 were tested). In C, a typical sample from the peptide C-1 treatment is shown. […] Consequently, there were far fewer cells and cellular structures inside of the Matrigel. […] There were large regions of Matrigel that had no visibly associated structures and few single cells, including on the periphery, while other regions had some limited activity.
This system ranks each sample using a 0 to 4 plus (+) scale. Thus, B in FIG. 13 would yield a score of +++ while no + sign would yield a value of 0, as in A in FIG. 13. In Table 3 the data is modified to a numerical form and plotted averages are shown.

Data set [4] can be described thus: Fate of radiolabeled (3H/14C) peptide after injection into the animal. The format is in vivo. The settings on record: no matter the route of administration. From the text: Lytic peptides are active in eliminating tumor-derived cells by causing direct osmotic lysis. […] Indeed, that is the case. […] However, in some cases there was little activity. To determine what might be happening in vivo, radiolabeled D2A21 was chemically synthesized with all alanines labeled with either ^3H or ^14C. Since the labeling pattern was asymmetric, it enabled us to follow the physical state of the peptide once it had been injected into the animal by comparing the unique ratios of ^3H/^14C that would result if the peptide experienced proteolysis. […] The possibility emerged that the systemic in vivo anti-cancer activity was retained within specific fragments of D2A21.

“vascular endothelial growth factor [VEGF, reference compound]”: the “Endothelial Cell Migration” value in data set [1] (VEGF 75 ng/ml, second series) amounted to 0.69; in data set [1] (VEGF 150 ng/ml, first series), 0.78; in data set [1] (VEGF 150 ng/ml, third series) it was 0.77.
As to `Nc1ccn([C@@H]2O[C@H](CO)[C@@H](O)C2(F)F)c(=O)n1` [gemcitabine], in data set [2] (patients with Stage IV pancreatic cancer on gemcitabine treatment), the “longest survival on treatment” value is on record as 19 months. Also, in data set [2] (patients with Stage IV pancreatic cancer treated with gemcitabine (untreated 4.5 months)), the Median survival time is given as 4.8 months.
For the compound LDLQAPLYKKIIKKLLES [PF-2], in data set [3], the “angiogenic activity score, Sample 1” value was 2; the “angiogenic activity score, Sample 2” value is given as 3; the “angiogenic activity score, Sample 3” value is recorded as 2; the “angiogenic activity score, Sample 4” value came to 3. In addition, in data set [3], the “% Diff.” value was found to be 0.00% and the “angiogenic activity score, Mean” value stood at 2.50.
FAKKFAKFAF [JC15-10C]: in data set [3], the “angiogenic activity score, Sample 1” value was found to be 2; the “angiogenic activity score, Sample 2” value is listed as 3; the “angiogenic activity score, Sample 3” value is listed as 2; the “angiogenic activity score, Sample 4” value was found to be 3. Further, in data set [3], the “angiogenic activity score, Sample 5” value worked out at 2; the “angiogenic activity score, Sample 6” value is 3; the “angiogenic activity score, Sample 7” value is on record as 2; the “angiogenic activity score, Sample 8” value was found to be 3. Further, in data set [3], the “% Diff.” value was determined as 0.00%; the “angiogenic / anti-angiogenic activity in Matrigel deposit (in words)” value (from here on “angiogenic / anti-angiogenic activity”) is “inactive”; the “angiogenic activity score, Mean” value came to 2.50.
Consider FAKKFAKKFKKF [JC15-12N], for which, in data set [3], the “top level score reached in Matrigel deposits” value is recorded as “++++”; the “angiogenic activity score, Sample 1” value is recorded as 4; the “angiogenic activity score, Sample 2” value was 2; the “angiogenic activity score, Sample 3” value turned out to be 3. Besides, in data set [3], the “angiogenic activity score, Sample 4” value is given as 2; the “angiogenic activity score, Sample 5” value worked out at 3; the “angiogenic activity score, Sample 6” value is listed as 2; the “angiogenic activity score, Sample 7” value stood at 3. In data set [3], the “% Diff.” value came to 8.57%; the “angiogenic / anti-angiogenic activity” value is recorded as “levels of activity higher than the control; also recorded: cannot exert an anti-angiogenic effect”; the “angiogenic activity score, Mean” value came to 2.71.
For KKFKKFAKKFAKFAF [JC15-15C], in data set [3], the “top level score reached in Matrigel deposits” value is given as “++++”; the “angiogenic activity score, Sample 1” value is listed as 2; the “angiogenic activity score, Sample 2” value amounted to 3; the “angiogenic activity score, Sample 3” value is on record as 2. Further, in data set [3], the “angiogenic activity score, Sample 4” value is given as 3; the “angiogenic activity score, Sample 5” value worked out at 2; the “angiogenic activity score, Sample 6” value is 3; the “angiogenic activity score, Sample 7” value stood at 3. Besides, in data set [3], the “angiogenic activity score, Sample 8” value amounted to 4; the “% Diff.” value came out at 10.00%; the “angiogenic / anti-angiogenic activity” value was “levels of activity higher than the control; also recorded: cannot exert an anti-angiogenic effect”; the “angiogenic activity score, Mean” value is on record as 2.75.
For PTAQLIATLKNGRKI [PF-1], in data set [3], the “angiogenic activity score, Sample 1” value was 2; the “angiogenic activity score, Sample 2” value is given as 3; the “angiogenic activity score, Sample 3” value was determined as 2; the “angiogenic activity score, Sample 4” value came out at 3. In addition, in data set [3], the “% Diff.” value is on record as 0.00% and the “angiogenic activity score, Mean” value is listed as 2.50.
For `C[C@H](NC(=O)[C@H](Cc1ccccc1)NC(=O)[C@H](C)NC(=O)[C@H](Cc1ccccc1)NC(=O)[C@H](CCCCN)NC(=O)[C@H](C)NC(=O)[C@H](Cc1ccccc1)NC(=O)[C@H](CCCCN)NC(=O)[C@H](CCCCN)NC(=O)[C@H](C)NC(=O)[C@H](Cc1ccccc1)NC(=O)[C@H](CCCCN)NC(=O)[C@H](CCCCN)NC(=O)[C@H](Cc1ccccc1)NC(=O)[C@H](CCCCN)NC(=O)[C@H](CCCCN)NC(=O)[C@H](C)NC(=O)[C@H](Cc1ccccc1)NC(=O)[C@H](CCCCN)NC(=O)[C@H](CCCCN)NC(=O)[C@H](C)NC(=O)[C@@H](N)Cc1ccccc1)C(=O)N[C@@H](Cc1ccccc1)C(=O)O` [JC15] (H-FAKKFAKKFKKFAKKFAKFAFAF-OH; N-terminus and C-terminus assumed), the “time to hydrolysis of labeled peptide to fragments of various lengths” value in data set [4] is “within minutes”.
IVRRADRAAVPIVNLKDELL [C-1]: in data set [3], the “angiogenic activity score, Sample 1” value was determined as 2; the “angiogenic activity score, Sample 2” value turned out to be 2; the “angiogenic activity score, Sample 3” value worked out at 3; the “angiogenic activity score, Sample 4” value was found to be 1. Besides, in data set [3], the “angiogenic activity score, Sample 5” value is 2; the “angiogenic activity score, Sample 6” value is reported as 1; the “% Diff.” value is recorded as −26.67%; the “angiogenic / anti-angiogenic activity” value is on record as “far fewer cellular associations; also recorded: possess anti-angiogenic activity”. Further, in data set [3], the “angiogenic activity score, Mean” value turned out to be 1.83.
Take MFGNGKGYRGKRATTVTGTP [PL-2]: in data set [3], the “angiogenic activity score, Sample 1” value was 2; the “angiogenic activity score, Sample 2” value came out at 3; the “angiogenic activity score, Sample 3” value stood at 2; the “angiogenic activity score, Sample 4” value amounted to 3. For the same compound, in data set [3], the “angiogenic activity score, Sample 5” value is listed as 2; the “angiogenic activity score, Sample 6” value is given as 3; the “angiogenic activity score, Sample 7” value stood at 2; the “% Diff.” value is reported as −2.86%. In addition, the “angiogenic activity score, Mean” value in data set [3] was determined as 2.43.
As for QAWDSQSPHAHGYIPSKFPNKNLKKNY [PL-1], in data set [3], the “angiogenic activity score, Sample 1” value was 2; the “angiogenic activity score, Sample 2” value worked out at 3; the “angiogenic activity score, Sample 3” value stood at 2; the “angiogenic activity score, Sample 4” value was found to be 3. Further, in data set [3], the “angiogenic activity score, Sample 5” value was found to be 2; the “angiogenic activity score, Sample 6” value is 3; the “angiogenic activity score, Sample 7” value is listed as 2; the “angiogenic activity score, Sample 8” value turned out to be 3. Further, in data set [3], the “% Diff.” value came out at 0.00% and the “angiogenic activity score, Mean” value was determined as 2.50.
In the case of FAKKFAKKFKKFAKKFAK [JC15-18N], in data set [3], the “angiogenic activity score, Sample 1” value is reported as 3; the “angiogenic activity score, Sample 2” value is 2; the “angiogenic activity score, Sample 3” value came to 3; the “angiogenic activity score, Sample 4” value is recorded as 3. Besides, in data set [3], the “% Diff.” value is given as 10.00%; the “angiogenic / anti-angiogenic activity” value is on record as “levels of activity higher than the control; also recorded: cannot exert an anti-angiogenic effect”; the “angiogenic activity score, Mean” value is 2.75.
